Test results taken from patent publication US9522888B2, “Substituted bicyclic compounds” (BRISTOL-MYERS SQUIBB COMPANY, priority 2014, dated 2016).
pEC50, pIC50: −log10 of the molar value.

How the values were obtained:
human S1P1 = human S1P1 (Homo sapiens (Human), UniProt P21453); assay: S1P1 binding assay (33P-S1P radioligand competition, CHO cell membranes); details: phosphate examples; read-out: S1P1 Binding
Summary of the method: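 Radioligand is 33P-S1P, competing for membranes from human S1P1-expressing CHO cells. Membranes resuspended in 50 mM HEPES pH 7.5, 100 mM NaCl, 1 mM MgCl2, 2 mM EDTA.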

[1] = molecular target: S1P1 (membranes prepared from S1P1/CHO cells) (Homo sapiens (Human), UniProt P21453); assay: Receptor [35S] GTPγS binding assay (S1P1 GTPγS); type: biochemical; details: phosphate examples; read-out: S1P1 GTPγS
Summary of the method: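 Agonist-stimulated [35S]GTPγS binding (0.2 nM final) to S1P1/CHO membranes, 3 μg protein/well, measured after 45 min at room temperature. Buffer contained 10 μM GDP, saponin and fatty-acid-free BSA at pH 7.5. Compounds tested as 11-point 3-fold series; bound label captured on filters, scintillation-counted, EC50 reported.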

[2] = molecular target: S1P3 (membranes prepared from EDG3-Gal5-bla HEK293T cells) (Homo sapiens (Human), UniProt Q99500); assay: Receptor [35S] GTPγS binding assay (S1P3 GTPγS); type: biochemical; details: phosphate examples; read-out: S1P3 GTPγS
Summary of the method: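 Membranes (3 μg protein/well) from S1P1/CHO cells or EDG3-Gal5-bla HEK293T cells (S1P3) were incubated 45 min at room temperature with 0.2 nM final [35S]GTPγS in HEPES pH 7.5 buffer with 10 μM GDP, MgCl2 and saponin. Bound label counted after filtration; EC50 from 11-point, 3-fold dilutions.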

hS1P1/CHO cells = hS1P1/CHO cells (Homo sapiens (Human), UniProt P21453); assay: hS1P1 ERK phosphorylation (S1P1 pERK); type: cell-based; details: phosphate examples
Summary of the method: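 Agonism read as ERK phosphorylation (SureFire pERK) in hS1P1/CHO lysates, normalised to the maximal effect of 10 μM S1P. Cells were held 2 h in serum-free medium, then treated with compound for 7 min at 37° C. in HBSS/20 mM HEPES.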

S1P3 (membranes prepared from EDG3-Gal5-bla HEK293T cells), sequence (Q99500 whole entry): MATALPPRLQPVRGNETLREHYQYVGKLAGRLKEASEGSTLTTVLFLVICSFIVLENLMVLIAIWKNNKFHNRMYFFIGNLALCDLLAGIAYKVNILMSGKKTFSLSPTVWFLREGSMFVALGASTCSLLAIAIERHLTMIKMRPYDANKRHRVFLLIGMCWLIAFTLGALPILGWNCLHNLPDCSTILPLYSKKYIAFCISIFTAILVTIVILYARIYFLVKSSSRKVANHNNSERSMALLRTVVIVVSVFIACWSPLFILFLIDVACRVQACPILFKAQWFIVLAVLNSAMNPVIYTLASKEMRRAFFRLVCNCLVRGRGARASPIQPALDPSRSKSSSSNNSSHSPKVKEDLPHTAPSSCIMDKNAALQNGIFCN
S1P1 (membranes prepared from S1P1/CHO cells), sequence (P21453 whole entry): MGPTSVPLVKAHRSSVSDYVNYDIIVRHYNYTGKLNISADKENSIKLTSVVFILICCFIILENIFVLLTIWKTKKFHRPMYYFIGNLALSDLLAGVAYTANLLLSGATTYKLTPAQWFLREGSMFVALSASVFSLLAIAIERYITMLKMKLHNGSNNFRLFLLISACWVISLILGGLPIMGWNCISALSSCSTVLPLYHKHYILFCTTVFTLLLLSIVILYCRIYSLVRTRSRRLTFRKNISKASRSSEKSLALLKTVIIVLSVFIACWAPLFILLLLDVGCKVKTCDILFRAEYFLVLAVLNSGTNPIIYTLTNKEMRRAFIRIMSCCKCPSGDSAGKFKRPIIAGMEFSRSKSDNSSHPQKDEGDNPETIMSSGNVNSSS
hS1P1/CHO cells, sequence (P21453 whole entry): as above
human S1P1, sequence (P21453 whole entry): as above

pIC50 (human S1P1)	pEC50 [1]	pEC50 [2]	pEC50 (hS1P1/CHO cells)	SMILES
> 8.00	> 8.00	< 6.20	> 8.00	CCCCSC[C@@H]1CCc2cc([C@@H]3CC[C@](N)(COP(=O)(O)O)C3)ccc2C1 [compound 506]
6.00 to 7.00	6.00 to 7.00	< 6.20	7.00 to 8.00	N[C@]1(COP(=O)(O)O)CC[C@@H](c2ccc3c(c2)CC[C@H](CSc2ccccc2)C3)C1 [compound 507]
7.00 to 8.00	6.00 to 7.00	< 6.20	7.00 to 8.00	N[C@]1(COP(=O)(O)O)CC[C@@H](c2ccc3c(c2)CC[C@@H](CSc2ccccc2)C3)C1 [compound 508]
7.00 to 8.00	7.00 to 8.00	< 6.20	> 8.00	CC(C)CSC[C@H]1CCc2cc([C@H]3CC[C@](N)(COP(=O)(O)O)C3)ccc2C1 [compound 509]
> 8.00	7.00 to 8.00	< 6.20	> 8.00	CC(C)CCSC[C@@H]1CCc2cc([C@H]3CC[C@](N)(COP(=O)(O)O)C3)ccc2C1 [compound 510]
> 8.00	7.00 to 8.00	< 6.20	> 8.00	CC(C)CCSC[C@H]1CCc2cc([C@H]3CC[C@](N)(COP(=O)(O)O)C3)ccc2C1 [compound 511]
> 8.00	> 8.00	< 6.20	7.00 to 8.00	CCCCCSC[C@H]1CCc2cc([C@H]3CC[C@](N)(COP(=O)(O)O)C3)ccc2C1 [compound 512]
> 8.00	7.00 to 8.00	< 6.20	> 8.00	CCCCCSC[C@@H]1CCc2cc([C@H]3CC[C@](N)(COP(=O)(O)O)C3)ccc2C1 [compound 513]
> 8.00	7.00 to 8.00	< 6.20	7.00 to 8.00	CC(C)(C)CSC[C@H]1CCc2cc([C@H]3CC[C@](N)(COP(=O)(O)O)C3)ccc2C1 [compound 514]
7.00 to 8.00	7.00 to 8.00	< 6.20	> 8.00	CC(C)(C)CSC[C@@H]1CCc2cc([C@H]3CC[C@](N)(COP(=O)(O)O)C3)ccc2C1 [compound 515]
7.00 to 8.00	7.00 to 8.00	< 6.20	> 8.00	N[C@]1(COP(=O)(O)O)CC[C@H](c2ccc3c(c2)CC[C@@H](CSc2cccnc2)C3)C1 [compound 516]
7.00 to 8.00	7.00 to 8.00	< 6.20	> 8.00	N[C@]1(COP(=O)(O)O)CC[C@H](c2ccc3c(c2)CC[C@@H](CSc2ccncc2)C3)C1 [compound 517]
> 8.00	> 8.00	< 6.20	> 8.00	CC(C)(C)CCSC[C@H]1CCc2cc([C@H]3CC[C@](N)(COP(=O)(O)O)C3)ccc2C1 [compound 518]
> 8.00	> 8.00	< 6.20	> 8.00	CC(C)(C)CCSC[C@@H]1CCc2cc([C@H]3CC[C@](N)(COP(=O)(O)O)C3)ccc2C1 [compound 519]
7.00 to 8.00	7.00 to 8.00	< 6.20	7.00 to 8.00	Cc1ccccc1SC[C@@H]1CCc2cc([C@H]3CC[C@](N)(COP(=O)(O)O)C3)ccc2C1 [compound 520]
> 8.00	> 8.00	< 7.30	7.00 to 8.00	N[C@]1(COP(=O)(O)O)CC[C@H](c2ccc3c(c2)CC[C@H](CSCCc2ccccc2)C3)C1 [compound 521]
> 8.00	7.00 to 8.00	< 6.20	7.00 to 8.00	N[C@]1(COP(=O)(O)O)CC[C@H](c2ccc3c(c2)CC[C@@H](CSCCc2ccccc2)C3)C1 [compound 522]

pIC50 (human S1P1)	pEC50 [1]	pEC50 [2]	pEC50 (hS1P1/CHO cells)	SMILES
7.00 to 8.00	6.00 to 7.00	< 6.20	7.00 to 8.00	Cc1cccc(C)c1SC[C@@H]1CCc2cc([C@H]3CC[C@](N)(COP(=O)(O)O)C3)ccc2C1 [compound 523]
7.00 to 8.00	> 8.00	< 6.20	> 8.00	N[C@]1(COP(=O)(O)O)CC[C@H](c2ccc3c(c2)CC[C@@H](CSCCc2ccccn2)C3)C1 [compound 524]
> 8.00	7.00 to 8.00	< 6.20	> 8.00	N[C@]1(COP(=O)(O)O)CC[C@H](c2ccc3c(c2)CC[C@@H](CSCCc2ccncc2)C3)C1 [compound 525]
7.00 to 8.00	7.00 to 8.00	< 6.20	> 8.00	N[C@]1(COP(=O)(O)O)CC[C@H](c2ccc3c(c2)CC[C@H](CSCCc2cnccn2)C3)C1 [compound 526]
> 8.00	> 8.00	< 6.20	> 8.00	COc1ccccc1SC[C@@H]1CCc2cc([C@H]3CC[C@](N)(COP(=O)(O)O)C3)ccc2C1 [compound 527]
7.00 to 8.00	6.00 to 7.00	< 6.20	7.00 to 8.00	COc1cccc(SC[C@@H]2CCc3cc([C@H]4CC[C@](N)(COP(=O)(O)O)C4)ccc3C2)c1 [compound 528]
> 8.00	7.00 to 8.00	< 6.20	> 8.00	COc1ccc(SC[C@@H]2CCc3cc([C@H]4CC[C@](N)(COP(=O)(O)O)C4)ccc3C2)cc1 [compound 529]
7.00 to 8.00	> 8.00	< 6.20	7.00 to 8.00	CC(C)c1ccccc1SC[C@@H]1CCc2cc([C@H]3CC[C@](N)(COP(=O)(O)O)C3)ccc2C1 [compound 530]
7.00 to 8.00	7.00 to 8.00	< 6.20	7.00 to 8.00	COc1ccc(SC[C@@H]2CCc3cc([C@H]4CC[C@](N)(COP(=O)(O)O)C4)ccc3C2)cc1OC [compound 531]
> 8.00	> 8.00	< 6.20	> 8.00	CCCSC[C@H]1CCc2cc([C@H]3CC[C@](N)(COP(=O)(O)O)C3)ccc2C1 [compound 532]
> 8.00	> 8.00	< 6.20	> 8.00	CCSCC[C@@H]1CCc2cc([C@H]3CC[C@](N)(COP(=O)(O)O)C3)ccc2C1 [compound 533]
> 8.00	> 8.00	< 6.20	7.00 to 8.00	CCCSCC[C@H]1CCc2cc([C@H]3CC[C@](N)(COP(=O)(O)O)C3)ccc2C1 [compound 534]
> 8.00	> 8.00	< 6.20	> 8.00	CCCSCC[C@@H]1CCc2cc([C@H]3CC[C@](N)(COP(=O)(O)O)C3)ccc2C1 [compound 535]
> 8.00	7.00 to 8.00	< 6.20	> 8.00	CC(C)SCC[C@H]1CCc2cc([C@H]3CC[C@](N)(COP(=O)(O)O)C3)ccc2C1 [compound 536]
> 8.00	> 8.00	< 6.20	> 8.00	CC(C)SCC[C@@H]1CCc2cc([C@H]3CC[C@](N)(COP(=O)(O)O)C3)ccc2C1 [compound 537]
> 8.00	> 8.00	< 6.20	> 8.00	CC(C)CSCC[C@@H]1CCc2cc([C@H]3CC[C@](N)(COP(=O)(O)O)C3)ccc2C1 [compound 538]
> 8.00	> 8.00	< 6.20	> 8.00	CC(C)CSCC[C@H]1CCc2cc([C@H]3CC[C@](N)(COP(=O)(O)O)C3)ccc2C1 [compound 539]
